# Data taken from PubChem BioAssay (NCI).
#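 Values below derive from 48-hour exposures of cells grown in 96-well plates, with endpoints linearly interpolated between the two concentrations bracketing the appropriate inhibition level. TGI: total growth inhibition.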
# How the values were obtained:
# Assay in all cases: DTP human tumour cell line panel, 48 h
# A549 NSCLC = system: A549 NSCLC
# ACHN renal = system: ACHN renal
# CAKI-1 renal = system: CAKI-1 renal
# EKVX NSCLC = system: EKVX NSCLC
# HOP-62 NSCLC = system: HOP-62 NSCLC
# HOP-92 NSCLC = system: HOP-92 NSCLC
# HT29 colon = system: HT29 colon
# KM12 colon = system: KM12 colon
# M14 melanoma = system: M14 melanoma
# MCF7 breast = system: MCF7 breast
# RPMI-8226 leukemia = system: RPMI-8226 leukemia
# SF-295 CNS = system: SF-295 CNS
# SK-MEL-2 melanoma = system: SK-MEL-2 melanoma
# SK-MEL-5 melanoma = system: SK-MEL-5 melanoma
# SN12C renal = system: SN12C renal
# SNB-19 CNS = system: SNB-19 CNS
# TK-10 renal = system: TK-10 renal
# BT-549 breast = system: BT-549 breast
# T-47D breast = system: T-47D breast
# HL-60(TB) leukemia = system: HL-60(TB) leukemia
Structure (SMILES),TGI (A549 NSCLC),TGI (ACHN renal),TGI (CAKI-1 renal),TGI (EKVX NSCLC),TGI (HOP-62 NSCLC),TGI (HOP-92 NSCLC),TGI (HT29 colon),TGI (KM12 colon),TGI (M14 melanoma),TGI (MCF7 breast),TGI (RPMI-8226 leukemia),TGI (SF-295 CNS),TGI (SK-MEL-2 melanoma),TGI (SK-MEL-5 melanoma),TGI (SN12C renal),TGI (SNB-19 CNS),TGI (TK-10 renal),TGI (BT-549 breast),TGI (T-47D breast),TGI (HL-60(TB) leukemia)
CN(NC(=O)/C(=C\c1ccco1)NC(=O)c1ccccc1)c1cn[nH]c(=O)c1Cl,> 100 µM,> 100 µM,> 100 µM,> 100 µM,> 100 µM,> 100 µM,> 100 µM,> 100 µM,> 100 µM,> 100 µM,50.5 µM,> 100 µM,> 100 µM,94.9 µM,> 100 µM,> 100 µM,> 100 µM,,,
CCCC(=O)Oc1ccc2c(C)cc(=O)oc2c1OC(=O)CCC,> 100 µM,> 100 µM,,> 100 µM,> 100 µM,99.6 µM,> 100 µM,> 100 µM,> 100 µM,> 100 µM,> 100 µM,> 100 µM,> 100 µM,> 100 µM,> 100 µM,> 100 µM,> 100 µM,,,
C[C@@H]1OC(=O)C[C@H]2CC(=O)N(CCC3CN(S(=O)(=O)C(F)(F)F)c4ccccc43)C[C@@H]21 (some centres undefined),> 100 µM,> 100 µM,> 100 µM,> 100 µM,> 100 µM,> 100 µM,> 100 µM,> 100 µM,> 100 µM,> 100 µM,> 100 µM,> 100 µM,> 100 µM,> 100 µM,,> 100 µM,,,,
CC(=O)c1sc(Nc2ccc(Cl)c(Cl)c2)nc1C,> 100 µM,> 100 µM,> 100 µM,> 100 µM,> 100 µM,,> 100 µM,> 100 µM,,> 100 µM,> 100 µM,> 100 µM,,> 100 µM,> 100 µM,> 100 µM,> 100 µM,> 100 µM,> 100 µM,
Cn1c2ccccc2c2nc3ccccc3c(Cl)c21,> 100 µM,,> 100 µM,,> 100 µM,,> 100 µM,> 100 µM,> 100 µM,> 100 µM,> 100 µM,> 100 µM,> 100 µM,,> 100 µM,> 100 µM,> 100 µM,> 100 µM,,> 100 µM
CCN(CC)c1ccc2cc(C(=O)Nc3nc(C45CC6CC(CC(C6)C4)C5)cs3)c(=O)oc2c1,> 100 µM,> 100 µM,> 100 µM,> 100 µM,> 100 µM,> 100 µM,> 100 µM,> 100 µM,,> 100 µM,> 100 µM,> 100 µM,,> 100 µM,> 100 µM,> 100 µM,> 100 µM,> 100 µM,,> 100 µM
CCOC(=O)/C(C[C@H]1OC(C)(C)O[C@@H]1[C@H]1COC(C)(C)O1)=N/O,> 100 µM,> 100 µM,> 100 µM,> 100 µM,> 100 µM,> 100 µM,> 100 µM,> 100 µM,> 100 µM,> 100 µM,> 100 µM,> 100 µM,> 100 µM,> 100 µM,> 100 µM,> 100 µM,> 100 µM,> 100 µM,,> 100 µM
CC(=O)Oc1cc(C)c(OC(C)=O)c2c1[C@H]1CC[C@]3(C)[C@@H](OC(C)=O)CC[C@H]3[C@@H]1CC2,34.4 µM,27.7 µM,31.5 µM,26.4 µM,34.4 µM,23.7 µM,46.2 µM,28.6 µM,30.2 µM,36.1 µM,59.2 µM,37.2 µM,,31.3 µM,33.2 µM,32.2 µM,31.6 µM,30.7 µM,,56.7 µM
COc1ccc(N=Nc2ccc3oc(=O)c(C(=O)Nc4ccc(Cl)cc4)cc3c2)cc1,,> 10 µM,> 10 µM,> 10 µM,> 10 µM,> 10 µM,> 10 µM,> 10 µM,> 10 µM,> 10 µM,> 10 µM,> 10 µM,> 10 µM,> 10 µM,> 10 µM,,> 10 µM,,> 10 µM,
COC(=O)c1nc(-c2nc(CCNC(=O)OC(C)(C)C)sc2Cl)sc1Cl,> 100 µM,> 100 µM,,> 100 µM,> 100 µM,67.2 µM,> 100 µM,> 100 µM,> 100 µM,> 100 µM,> 100 µM,> 100 µM,,> 100 µM,,> 100 µM,> 100 µM,> 100 µM,,> 100 µM
CCc1cccc(CC)c1NC(=O)C1=C(C)NC(C)=C(C(=O)Nc2c(CC)cccc2CC)C1c1ccc2c(c1)OCO2,66.5 µM,39 µM,52 µM,38.3 µM,37.2 µM,32.1 µM,30.4 µM,36.5 µM,31.1 µM,,> 100 µM,29.2 µM,33.7 µM,33 µM,28.7 µM,33 µM,> 100 µM,,,26.4 µM
NC(=S)N/N=c1\cc(C(=O)Nc2ccc([N+](=O)[O-])cc2[N+](=O)[O-])oc2ccccc12,> 100 µM,> 100 µM,> 100 µM,> 100 µM,> 100 µM,> 100 µM,> 100 µM,> 100 µM,> 100 µM,> 100 µM,,> 100 µM,> 100 µM,> 100 µM,> 100 µM,> 100 µM,> 100 µM,> 100 µM,,> 100 µM
CCCCNC(=O)CCN(C(=O)O)S(=O)(=O)c1ccc(NC(=O)c2ccccc2)cc1,> 100 µM,> 100 µM,> 100 µM,> 100 µM,> 100 µM,> 100 µM,49.8 µM,> 100 µM,> 100 µM,,> 100 µM,> 100 µM,> 100 µM,> 100 µM,> 100 µM,> 100 µM,> 100 µM,,,> 100 µM
COC(=O)C1=C(O)CCCC(CCC(C)=O)=C1,> 100 µM,> 100 µM,> 100 µM,> 100 µM,,95.7 µM,> 100 µM,> 100 µM,> 100 µM,,> 100 µM,> 100 µM,> 100 µM,> 100 µM,> 100 µM,> 100 µM,> 100 µM,> 100 µM,> 100 µM,43.8 µM
C/C(=N\Nc1nc2ccccc2o1)c1cc(C)ncn1,> 39 µM,29.3 µM,42.5 µM,2.95 µM,> 35.3 µM,> 21.7 µM,14.8 µM,11.7 µM,> 34.7 µM,> 85.3 µM,> 100 µM,,32.7 µM,14.3 µM,> 100 µM,> 100 µM,,> 100 µM,,> 100 µM
O=C(Cn1c2ccc(Br)cc2c2nc3ccccc3nc21)N/N=C/c1ccccc1,> 100 µM,> 100 µM,> 100 µM,> 100 µM,97.9 µM,,> 100 µM,> 100 µM,> 100 µM,> 100 µM,,84.8 µM,> 100 µM,> 100 µM,> 100 µM,> 100 µM,> 100 µM,> 100 µM,> 100 µM,
Cc1n[nH]c(=O)n1/N=C/c1ccncc1,> 100 µM,> 100 µM,> 100 µM,> 100 µM,> 100 µM,> 100 µM,> 100 µM,> 100 µM,> 100 µM,,,> 100 µM,> 100 µM,> 100 µM,> 100 µM,> 100 µM,> 100 µM,,> 100 µM,
CCN(CC)Cc1cc(Nc2c3ccccc3nc3c4ccccc4n(C)c23)ccc1O,28.2 µM,24 µM,26 µM,29.7 µM,24.3 µM,18.9 µM,17.8 µM,23.9 µM,3.68 µM,,15.3 µM,21.8 µM,36.2 µM,6.6 µM,27.5 µM,33.4 µM,28.2 µM,,,12.9 µM
CC1(C)CCC[C@]2(C)[C@@H]1CC[C@@]13O[C@@H]1C1=C(CO)C(=O)OC1=C[C@@H]23,24.4 µM,> 100 µM,34.2 µM,29.2 µM,49.3 µM,37 µM,29.6 µM,24.8 µM,33.9 µM,> 100 µM,62.8 µM,44.9 µM,53.8 µM,29.5 µM,25.9 µM,28.7 µM,55.5 µM,51 µM,,
CC1(C)N=C(C(=O)c2ccccc2)N(O)C1(O)c1ccccc1 (centres undefined),> 100 µM,> 100 µM,> 100 µM,> 100 µM,> 100 µM,> 100 µM,> 100 µM,> 100 µM,> 100 µM,> 100 µM,> 100 µM,> 100 µM,> 100 µM,> 100 µM,> 100 µM,> 100 µM,> 100 µM,,> 100 µM,> 100 µM
CC(C)c1cccc(C(=O)NCCN(C)C)c1[N+](=O)[O-],> 100 µM,> 100 µM,> 100 µM,,> 100 µM,,> 100 µM,> 100 µM,> 100 µM,> 100 µM,,> 100 µM,> 100 µM,> 100 µM,> 100 µM,> 100 µM,> 100 µM,97.4 µM,> 100 µM,> 100 µM
O=C1/C(=C/c2ccccc2)CCc2ccccc21,57.4 µM,32.4 µM,32.7 µM,33.7 µM,34.4 µM,,32.7 µM,33.8 µM,37.4 µM,34.6 µM,9.42 µM,34 µM,,32.3 µM,56.1 µM,22.7 µM,29.2 µM,29.7 µM,,37.8 µM
CC1CN=C(NS(=O)(=O)c2cc(C(=O)Nc3ccc(F)cc3)c(Cl)cc2S)NN1 (centres undefined),> 100 µM,> 100 µM,> 100 µM,> 100 µM,> 100 µM,,> 100 µM,> 100 µM,> 100 µM,> 100 µM,> 100 µM,> 100 µM,76.7 µM,> 100 µM,> 100 µM,> 100 µM,> 100 µM,> 100 µM,,> 100 µM
COc1ccc(NS(=O)c2ccccc2OC)cc1 (centres undefined),79.8 µM,> 100 µM,68.6 µM,> 100 µM,> 100 µM,,> 100 µM,18.1 µM,> 100 µM,67.3 µM,> 100 µM,> 100 µM,46.6 µM,54.4 µM,> 100 µM,> 100 µM,> 100 µM,,35.2 µM,> 100 µM
COC(=O)NC(=O)c1cn(CCCOC(=O)CCCCCCCCC(=O)OCCCn2cc(C(=O)NC(=O)OC)c(=O)[nH]c2=O)c(=O)[nH]c1=O,> 100 µM,> 100 µM,> 100 µM,> 100 µM,78.5 µM,95.2 µM,> 100 µM,> 100 µM,> 100 µM,,> 100 µM,> 100 µM,> 100 µM,> 100 µM,> 100 µM,76.5 µM,> 100 µM,,,> 100 µM
O=C1CCCCCC1CC(Sc1ccccc1)Sc1ccccc1 (centres undefined),> 100 µM,> 100 µM,> 100 µM,> 100 µM,> 100 µM,> 100 µM,> 100 µM,> 100 µM,> 100 µM,> 100 µM,> 100 µM,> 100 µM,> 100 µM,> 100 µM,,> 100 µM,> 100 µM,,> 100 µM,52.7 µM
